The experiment deals with T1, RORγ (Homo sapiens, UniProt P51449).
T1 sequence (P51449 269-508 limits assumed): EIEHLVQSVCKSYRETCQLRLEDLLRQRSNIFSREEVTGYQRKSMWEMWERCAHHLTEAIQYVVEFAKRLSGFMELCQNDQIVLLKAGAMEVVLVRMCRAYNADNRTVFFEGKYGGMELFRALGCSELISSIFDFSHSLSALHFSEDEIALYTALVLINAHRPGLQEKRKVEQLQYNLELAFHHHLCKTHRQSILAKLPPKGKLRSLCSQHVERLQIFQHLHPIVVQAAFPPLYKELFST
Nature of the experiment: RORγ GAL4 reporter gene assay. The settings on record: mean pIC50, inhibition of RORγ (GAL4-RORγ-LBD) in 293FT cells, luciferase readout, overnight incubation. For orientation: Reporter assays use an easily measured gene product as a stand-in for the process of interest.

From patent US9738600B2, “ROR gamma (RORγ) modulators” (LEAD PHARMA CEL MODELS IP B.V., priority 2013, dated 2017) come the findings set out here.

Source text: The RORγ ligand-binding domain (LBD) was fused to the yeast GAL4 DNA binding domain (DBD) and placed under the control of the human cytomegalovirus (CMV) immediate early promoter, using expression vector pFN26A (Promega) and standard recombinant DNA cloning methods.
To monitor the inhibitory effect of compounds on RORγ, a transcriptional reporter construct was used. The pGL4.35 vector (Promega) contains nine copies of the GAL4 Upstream Activator Sequence (UAS). This sequence drives the transcription of the luciferase reporter gene luc2P in response to binding of a fusion protein containing the GAL4 DNA binding domain, as for example expressed by the GAL4-RORγ-LBD and GAL4-VP16 expression vectors described above.
The day after transfection, cells were plated into 96 well plates, test compound was added and the plates were incubated overnight. Subsequently, the firefly luciferase activity was quantified using luciferase detection reagent and luminescence readout.
1500 μL of this reagent mixture was added to 5 μg of GAL4 fusion protein expression vector and 5 μg of the transcriptional reporter construct, and incubated at RT for 20 minutes.
Subsequently, the cells were washed with Phosphate Buffered Saline (PBS) (Lonza), after which the PBS was removed. To dissociate the cells, 1 ml of TrypLE Express (Invitrogen) was added to the flask, followed by incubation at RT until the cells visually started to detach. Cells were collected in 5 mL of assay medium (DMEM culture medium (Lonza), 10% dialyzed FBS (Invitrogen) and Pen/Strep (Lonza)) to achieve a single cell suspension. 10×10^6 cells were spun down and re-suspended in 10 mL of assay medium. Subsequently, the cell suspension was added to the transfection mix tube, and then transferred as a whole to a T75 flask (Greiner), followed by overnight (16-24 hours) incubation at 37° C. and 5% CO2.
For compound screening, the cells were harvested (as described above) and counted. […] 80 μL of cell suspension (60,000 cells) was plated per well into a white, flat bottom, tissue culture treated, 96 well screening plates (Greiner).
Test compounds were diluted, starting from a 10 mM dimethylsulfoxide (DMSO) stock solution, to serial dilutions in DMSO at 500× the final test concentration. Subsequently, these solutions were diluted to 5× the final test concentration in two 10-fold-dilution steps in assay medium. The final DMSO concentration of the 5× test compound solution was 1%. 20 μL of the 5× test compound solution was added to each test well of the 96 well plate previously plated with 80 μl cell suspension, resulting in the final test concentration with 0.2% DMSO.
The plates were incubated overnight (16-24 hours) at 37° C. and 5% CO2.
For the luciferase readout, the luciferase reagent (Britelite Plus, Perkin Elmer) was brought to RT. […] The luciferase luminescence signal was measured using a Wallac Victor Microplate Reader (Perkin Elmer).
The half maximum inhibitory concentration (IC50) values for the test compounds were calculated from the luciferase signal using GraphPad Prism software (GraphPad Software).

By IC50 is commonly meant the concentration that inhibits the measured activity by half. Read a low IC50 as greater potency. Molecule `CCOC(c1ccc(NC(=O)Cc2ccc(S(=O)(=O)CC3CC3)cc2)cc1)(C(F)(F)F)C(F)(F)F` [Example 53, 2-(4-((cyclopropylmethyl)sulfonyl)phenyl)-N-(4-(2-ethoxy-1,1,1,3,3,3-hexafluoropropan-2-yl)phenyl)acetamide] gave an IC50 of at most 100 nM.

Consider `COC(c1ccc(NC(=O)Cc2ccc(S(=O)(=O)CC3CC3)cc2)cc1)(C(F)(F)F)C(F)(F)F` [Example 54, 2-(4-((cyclopropylmethyl)sulfonyl)phenyl)-N-(4-(1,1,1,3,3,3-hexafluoro-2-methoxypropan-2-yl)phenyl)acetamide], for which the IC50 was at most 100 nM. With `COc1cc(C(O)(C(F)(F)F)C(F)(F)F)ccc1NC(=O)Cc1ccc(S(=O)(=O)CC2CC2)cc1` [Example 55, 2-(4-((cyclopropylmethyl)sulfonyl)phenyl)-N-(4-(1,1,1,3,3,3-hexafluoro-2-hydroxypropan-2-yl)-2-methoxyphenyl)acetamide] the figure was at most 100 nM; with `COc1cc(NC(=O)Cc2ccc(S(=O)(=O)CC3CC3)cc2)ccc1C(O)(C(F)(F)F)C(F)(F)F` [Example 56, 2-(4-((cyclopropylmethyl)sulfonyl)phenyl)-N-(4-(1,1,1,3,3,3-hexafluoro-2-hydroxypropan-2-yl)-3-methoxyphenyl)acetamide], at most 1000 nM. In turn, `Nc1cc(C(O)(C(F)(F)F)C(F)(F)F)ccc1NC(=O)Cc1ccc(S(=O)(=O)CC2CC2)cc1` [Example 57, N-(2-amino-4-(1,1,1,3,3,3-hexafluoro-2-hydroxypropan-2-yl)phenyl)-2-(4-((cyclopropylmethyl)sulfonyl)phenyl)acetamide] yielded an IC50 of at most 1000 nM.

Molecule `O=C(Cc1ccc(S(=O)(=O)CC2CC2)cc1)Nc1ccc(C(OCCC2CC2)(C(F)(F)F)C(F)(F)F)cc1` [Example 58, N-(4-(2-(2-cyclopropylethoxy)-1,1,1,3,3,3-hexafluoropropan-2-yl)phenyl)-2-(4-((cyclopropylmethyl)sulfonyl)phenyl)acetamide] came in with an IC50 of at most 1000 nM. `O=C(Cc1ccc(S(=O)(=O)CC2CC2)cc1)Nc1ccc(C(OCc2ccccc2)(C(F)(F)F)C(F)(F)F)cc1` [Example 59, N-(4-(2-(benzyloxy)-1,1,1,3,3,3-hexafluoropropan-2-yl)phenyl)-2-(4-((cyclopropylmethyl)sulfonyl)phenyl)acetamide]: the IC50 is at most 100 nM. With `CCCOC(c1ccc(NC(=O)Cc2ccc(S(=O)(=O)CC3CC3)cc2)cc1)(C(F)(F)F)C(F)(F)F` [Example 60, 2-(4-((cyclopropylmethyl)sulfonyl)phenyl)-N-(4-(1,1,1,3,3,3-hexafluoro-2-propoxypropan-2-yl)phenyl)acetamide] the figure was at most 10 nM. Molecule `CCCOC(c1ccc(NC(=O)Cc2ccc(S(=O)(=O)NC3CC3)cc2)cc1)(C(F)(F)F)C(F)(F)F` [Example 61, 2-(4-(N-cyclopropylsulfamoyl)phenyl)-N-(4-(1,1,1,3,3,3-hexafluoro-2-propoxypropan-2-yl)phenyl)acetamide] returned an IC50 of at most 100 nM.

For the molecule `O=C(Cc1ccc(S(=O)(=O)CC2CC2)cc1)Nc1ccc(C(O)(C(F)(F)F)C(F)(F)F)c(Cl)c1` [Example 62, N-(3-chloro-4-(1,1,1,3,3,3-hexafluoro-2-hydroxypropan-2-yl)phenyl)-2-(4-((cyclopropylmethyl)sulfonyl)phenyl)acetamide], the IC50 was at most 100 nM. `CCCC(O)(c1ccc(NC(=O)Cc2ccc(S(=O)(=O)CC)cc2)cc1)C(F)(F)F` (stereo not shown) [Example 63, 2-(4-(ethylsulfonyl)phenyl)-N-(4-(1,1,1-trifluoro-2-hydroxypentan-2-yl)phenyl)acetamide] yielded an IC50 of at most 1000 nM. On to `CCCCC(O)(c1ccc(NC(=O)Cc2ccc(S(=O)(=O)CC3CC3)cc2)cc1)C(F)(F)F` (stereo not shown) [Example 64, 2-(4-((cyclopropylmethyl)sulfonyl)phenyl)-N-(4-(1,1,1-trifluoro-2-hydroxyhexan-2-yl)phenyl)acetamide], for which the IC50 was at most 10 nM. With `CCS(=O)(=O)c1ccc(CC(=O)Nc2ccc(C(O)(C(C)C)C(F)(F)F)cc2)cc1` (stereo not shown) [Example 65, 2-(4-(ethylsulfonyl)phenyl)-N-(4-(1,1,1-trifluoro-2-hydroxy-3-methylbutan-2-yl)phenyl)acetamide] the figure was at most 1000 nM. `CCS(=O)(=O)c1ccc(CC(=O)Nc2ccc(C(O)(CC(C)C)C(F)(F)F)cc2)cc1` (stereo not shown) [Example 66, 2-(4-(ethylsulfonyl)phenyl)-N-(4-(1,1,1-trifluoro-2-hydroxy-4-methylpentan-2-yl)phenyl)acetamide] came in with an IC50 of at most 100 nM.

Consider `O=C(Cc1ccc(S(=O)(=O)CC2CC2)cc1)Nc1ccc(C(O)(C2CC2)C(F)(F)F)cc1` (stereo not shown) [Example 67, N-(4-(1-cyclopropyl-2,2,2-trifluoro-1-hydroxyethyl)phenyl)-2-(4-((cyclopropylmethyl)sulfonyl)phenyl)acetamide], for which the IC50 is at most 100 nM. With `O=C(Cc1ccc(S(=O)(=O)CC2CC2)cc1)Nc1ccc(C(O)(CC2CCCC2)C(F)(F)F)cc1` (stereo not shown) [Example 68, N-(4-(3-cyclopentyl-1,1,1-trifluoro-2-hydroxypropan-2-yl)phenyl)-2-(4-((cyclopropylmethyl)sulfonyl)phenyl)acetamide] the figure was at most 100 nM; with `O=C(Cc1ccc(S(=O)(=O)CC2CC2)cc1)Nc1ccc(C(O)(CC2CCCCC2)C(F)(F)F)cc1` (stereo not shown) [Example 69, N-(4-(3-cyclohexyl-1,1,1-trifluoro-2-hydroxypropan-2-yl)phenyl)-2-(4-((cyclopropylmethyl)sulfonyl)phenyl)acetamide], at most 100 nM.

As to `O=C(Cc1ccc(S(=O)(=O)CC2CC2)cc1)Nc1ccc(C(O)C(F)(F)F)cc1` (stereo not shown) [Example 70, 2-(4-((cyclopropylmethyl)sulfonyl)phenyl)-N-(4-(2,2,2-trifluoro-1-hydroxyethyl)phenyl)acetamide], the IC50 was at most 1000 nM. With `CC(O)(c1ccc(NC(=O)Cc2ccc(S(=O)(=O)CC3CC3)cc2)cc1)C(F)(F)F` (stereo not shown) [Example 71, 2-(4-((cyclopropylmethyl)sulfonyl)phenyl)-N-(4-(1,1,1-trifluoro-2-hydroxypropan-2-yl)phenyl)acetamide], the IC50 is at most 100 nM.

The molecule `CCCCC(O)(c1ccc(NC(=O)Cc2ccc(S(=O)(=O)CC)cc2)cc1)C(F)(F)F` (stereo not shown) [Example 72, 2-(4-(ethylsulfonyl)phenyl)-N-(4-(1,1,1-trifluoro-2-hydroxyhexan-2-yl)phenyl)acetamide] displayed an IC50 of at most 1000 nM. Molecule `CCS(=O)(=O)c1ccc(CC(=O)Nc2ccc(C(O)(C3CC3)C(F)(F)F)cc2)cc1` (stereo not shown) [Example 73, N-(4-(1-cyclopropyl-2,2,2-trifluoro-1-hydroxyethyl)phenyl)-2-(4-(ethylsulfonyl)phenyl)acetamide] yielded an IC50 of at most 1000 nM.

`CCS(=O)(=O)c1ccc(CC(=O)Nc2ccc(C(O)(CC3CCCCC3)C(F)(F)F)cc2)cc1` (stereo not shown) [Example 74, N-(4-(3-cyclohexyl-1,1,1-trifluoro-2-hydroxypropan-2-yl)phenyl)-2-(4-(ethylsulfonyl)phenyl)acetamide] gave an IC50 of at most 1000 nM. `O=C(Cc1ccc(S(=O)(=O)CC2CC2)cc1)Nc1ccc(C(O)(C2CCCC2)C(F)(F)F)cc1` (stereo not shown) [Example 75, N-(4-(1-cyclopentyl-2,2,2-trifluoro-1-hydroxyethyl)phenyl)-2-(4-((cyclopropylmethyl)sulfonyl)phenyl)acetamide] displayed a half-inhibitory concentration (IC50) of at most 10 nM. `CC(C)CC(O)(c1ccc(NC(=O)Cc2ccc(S(=O)(=O)NC3CC3)cc2)cc1)C(F)(F)F` (stereo not shown) [Example 76, 2-(4-(N-cyclopropylsulfamoyl)phenyl)-N-(4-(1,1,1-trifluoro-2-hydroxy-4-methylpentan-2-yl)phenyl)acetamide] displayed an IC50 of at most 100 nM.

As to `CC(O)(c1ccc(NC(=O)Cc2ccc(S(=O)(=O)NC3CC3)cc2)cc1)C(F)(F)F` (stereo not shown) [Example 78, 2-(4-(N-cyclopropylsulfamoyl)phenyl)-N-(4-(1,1,1-trifluoro-2-hydroxypropan-2-yl)phenyl)acetamide], the IC50 is at most 1000 nM. The result for `CCC(O)(c1ccc(NC(=O)Cc2ccc(S(=O)(=O)NC3CC3)cc2)cc1)C(F)(F)F` (stereo not shown) [Example 79, 2-(4-(N-cyclopropylsulfamoyl)phenyl)-N-(4-(1,1,1-trifluoro-2-hydroxybutan-2-yl)phenyl)acetamide] reads at most 1000 nM; that for `CCCC(O)(c1ccc(NC(=O)Cc2ccc(S(=O)(=O)NC3CC3)cc2)cc1)C(F)(F)F` (stereo not shown) [Example 80, 2-(4-(N-cyclopropylsulfamoyl)phenyl)-N-(4-(1,1,1-trifluoro-2-hydroxypentan-2-yl)phenyl)acetamide], at most 1000 nM. Turning to `CC(C)(C)CC(O)(c1ccc(NC(=O)Cc2ccc(S(=O)(=O)CC3CC3)cc2)cc1)C(F)(F)F` (stereo not shown) [Example 82, 2-(4-((cyclopropylmethyl)sulfonyl)phenyl)-N-(4-(1,1,1-trifluoro-2-hydroxy-4,4-dimethylpentan-2-yl)phenyl)acetamide], the IC50 is at most 10 nM. With `CCC(O)(c1ccc(NC(=O)Cc2ccc(S(=O)(=O)CC3CC3)cc2)cc1)C(F)(F)F` (stereo not shown) [Example 83, 2-(4-((cyclopropylmethyl)sulfonyl)phenyl)-N-(4-(1,1,1-trifluoro-2-hydroxybutan-2-yl)phenyl)acetamide] the figure was at most 10 nM; with `CCS(=O)(=O)c1ccc(CC(=O)Nc2ccc(C(O)(C(F)(F)F)C(F)(F)F)c(Cl)c2)cc1` [Example 84, N-(3-chloro-4-(1,1,1,3,3,3-hexafluoro-2-hydroxypropan-2-yl)phenyl)-2-(4-(ethylsulfonyl)phenyl)acetamide], at most 1000 nM. The molecule `CCS(=O)(=O)c1ccc(CC(=O)Nc2ccc(C(O)(C3CCCC3)C(F)(F)F)cc2)cc1` (stereo not shown) [Example 85, N-(4-(1-cyclopentyl-2,2,2-trifluoro-1-hydroxyethyl)phenyl)-2-(4-(ethylsulfonyl)phenyl)acetamide] registered an IC50 of at most 1000 nM.
